pIC50: −log10 of the molar value.
Key:
[1] = Permeability of the compound at 50 uM after 18 hrs by PAMPA; type: ADME; conditions: read-out: permeability
OCI-Ly3 = assay: Growth inhibition of human OCI-LY3 cells at 1 uM after 48 hrs by MTS assay relative to control; type: functional; conditions: OCI-Ly3, 48 h, read-out: GI
[2] = target: DNA (cytosine-5)-methyltransferase 1 (Homo sapiens, UniProt P26358); assay: Inhibition of human DNMT1 using polydeoxyinosine polydeoxycytosine DNA as substrate after 15 mins in presence of SAM by TR-FRET assay
Chain of DNA (cytosine-5)-methyltransferase 1 (P26358 whole entry): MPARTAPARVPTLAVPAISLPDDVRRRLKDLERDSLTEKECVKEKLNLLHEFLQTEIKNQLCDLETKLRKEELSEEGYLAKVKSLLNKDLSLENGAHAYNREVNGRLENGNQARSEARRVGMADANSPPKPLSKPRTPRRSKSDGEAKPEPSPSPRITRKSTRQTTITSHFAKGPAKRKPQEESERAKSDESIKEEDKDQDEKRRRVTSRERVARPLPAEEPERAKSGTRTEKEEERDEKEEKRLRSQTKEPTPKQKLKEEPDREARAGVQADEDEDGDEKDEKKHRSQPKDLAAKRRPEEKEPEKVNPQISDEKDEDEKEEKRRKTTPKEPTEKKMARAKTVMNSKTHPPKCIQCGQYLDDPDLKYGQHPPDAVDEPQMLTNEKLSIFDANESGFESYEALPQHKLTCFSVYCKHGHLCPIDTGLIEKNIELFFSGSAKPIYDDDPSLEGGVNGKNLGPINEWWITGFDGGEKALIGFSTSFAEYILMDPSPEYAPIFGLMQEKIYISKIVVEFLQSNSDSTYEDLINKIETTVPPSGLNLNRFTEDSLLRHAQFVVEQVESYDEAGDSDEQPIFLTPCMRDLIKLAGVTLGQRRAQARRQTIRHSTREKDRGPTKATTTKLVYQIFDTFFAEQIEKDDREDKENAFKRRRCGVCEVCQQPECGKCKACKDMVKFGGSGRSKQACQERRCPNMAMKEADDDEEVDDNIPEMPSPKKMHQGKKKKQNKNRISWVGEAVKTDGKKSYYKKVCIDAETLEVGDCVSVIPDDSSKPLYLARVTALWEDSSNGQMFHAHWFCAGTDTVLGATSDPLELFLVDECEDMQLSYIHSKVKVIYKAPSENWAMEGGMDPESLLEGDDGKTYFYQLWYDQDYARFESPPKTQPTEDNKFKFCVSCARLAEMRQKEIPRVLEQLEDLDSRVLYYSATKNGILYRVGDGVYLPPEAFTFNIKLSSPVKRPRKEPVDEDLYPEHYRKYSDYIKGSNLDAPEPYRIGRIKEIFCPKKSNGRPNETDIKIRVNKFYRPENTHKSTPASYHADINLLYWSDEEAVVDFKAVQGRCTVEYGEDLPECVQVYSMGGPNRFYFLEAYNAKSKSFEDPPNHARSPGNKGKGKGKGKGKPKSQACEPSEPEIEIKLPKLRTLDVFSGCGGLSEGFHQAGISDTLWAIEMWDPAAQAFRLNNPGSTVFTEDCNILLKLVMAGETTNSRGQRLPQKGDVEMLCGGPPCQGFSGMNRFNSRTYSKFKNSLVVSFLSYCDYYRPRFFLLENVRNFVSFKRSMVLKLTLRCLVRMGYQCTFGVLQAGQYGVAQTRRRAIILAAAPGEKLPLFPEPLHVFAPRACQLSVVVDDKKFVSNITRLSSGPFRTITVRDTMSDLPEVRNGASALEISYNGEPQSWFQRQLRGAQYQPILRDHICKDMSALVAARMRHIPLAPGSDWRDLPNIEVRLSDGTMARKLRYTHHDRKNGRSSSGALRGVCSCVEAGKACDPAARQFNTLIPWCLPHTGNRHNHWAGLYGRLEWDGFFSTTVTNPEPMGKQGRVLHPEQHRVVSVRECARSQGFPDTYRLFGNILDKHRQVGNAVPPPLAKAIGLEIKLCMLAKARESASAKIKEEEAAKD

OCI-Ly10 = assay: Growth inhibition of human OCI-LY10 cells at 1 uM after 48 hrs by MTS assay relative to control; type: functional; conditions: OCI-Ly10, 48 h, read-out: GI
[3] = Growth inhibition of human CEMO1 cells at 1 uM after 48 hrs by MTS assay relative to control; type: functional; conditions: read-out: GI
[4] = Growth inhibition of human LAL-CUN-2 cells at 1 uM after 48 hrs by MTS assay relative to control; type: functional; conditions: read-out: GI
[5] = target: T1, Histone-lysine N-methyltransferase EHMT2 (Homo sapiens, UniProt Q96KQ7); assay: Inhibition of human G9a using biotinylated-H3K9 peptide as substrate after 1 hr in presence of SAM by TR-FRET assay
T1 sequence (Q96KQ7 whole entry): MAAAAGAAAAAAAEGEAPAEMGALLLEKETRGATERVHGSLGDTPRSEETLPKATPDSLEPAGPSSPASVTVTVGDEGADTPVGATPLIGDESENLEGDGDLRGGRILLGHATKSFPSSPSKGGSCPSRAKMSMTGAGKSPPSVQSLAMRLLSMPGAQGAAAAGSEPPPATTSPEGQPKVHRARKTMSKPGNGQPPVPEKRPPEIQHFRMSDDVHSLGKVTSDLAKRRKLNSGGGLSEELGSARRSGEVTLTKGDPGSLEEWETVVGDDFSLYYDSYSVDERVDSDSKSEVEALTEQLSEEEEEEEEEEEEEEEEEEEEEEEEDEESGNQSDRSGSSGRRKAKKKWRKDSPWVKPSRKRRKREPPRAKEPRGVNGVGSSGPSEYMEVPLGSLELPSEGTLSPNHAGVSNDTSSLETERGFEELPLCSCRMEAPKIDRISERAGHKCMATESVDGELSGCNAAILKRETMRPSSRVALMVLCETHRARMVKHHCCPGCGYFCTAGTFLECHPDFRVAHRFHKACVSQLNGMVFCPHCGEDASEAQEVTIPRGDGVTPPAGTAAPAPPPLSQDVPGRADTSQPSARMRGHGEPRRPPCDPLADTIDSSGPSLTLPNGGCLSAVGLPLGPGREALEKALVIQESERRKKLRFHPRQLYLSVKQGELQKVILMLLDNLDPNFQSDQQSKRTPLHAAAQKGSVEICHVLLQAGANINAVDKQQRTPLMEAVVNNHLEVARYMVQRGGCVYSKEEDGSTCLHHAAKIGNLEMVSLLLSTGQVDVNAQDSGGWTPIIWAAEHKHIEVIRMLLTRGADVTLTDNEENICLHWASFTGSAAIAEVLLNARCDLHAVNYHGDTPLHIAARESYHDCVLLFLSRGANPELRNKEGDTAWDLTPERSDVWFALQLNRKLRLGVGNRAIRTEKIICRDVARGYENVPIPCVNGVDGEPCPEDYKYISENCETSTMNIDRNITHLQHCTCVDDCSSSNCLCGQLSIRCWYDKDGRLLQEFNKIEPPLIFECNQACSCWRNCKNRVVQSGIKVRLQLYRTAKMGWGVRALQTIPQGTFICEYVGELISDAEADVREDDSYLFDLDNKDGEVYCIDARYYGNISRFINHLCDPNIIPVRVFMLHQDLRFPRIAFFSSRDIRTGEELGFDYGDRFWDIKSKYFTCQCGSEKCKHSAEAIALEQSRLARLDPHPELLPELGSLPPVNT

MV4-11 = assay: Growth inhibition of human MV4-11 cells after 48 hrs by MTS assay; type: functional; conditions: MV4-11, 48 h
[6] = Growth inhibition of human CEMO1 cells after 48 hrs by MTS assay; type: functional
THLE-2 = assay: Growth inhibition of human THLE2 cells after 72 hrs by MTS assay; type: cell-based; conditions: thle-2, 72 h

Compound | Papp at 18 h, 50 µM [1] [×10⁻⁶ cm/s] | inhibition of growth at 1 µM (OCI-Ly3) [%] | pIC50 [2] | inhibition of growth at 1 µM (OCI-Ly10) [%] | inhibition of growth at 1 µM [3] [%] | inhibition of growth at 1 µM [4] [%] | pIC50 [5] | GI50 (MV4-11) [µM] | GI50 [6] [µM] | LC50 (THLE-2) [µM]
COc1cc2c(NC3CCN(C)CC3)cc(C3=CCOCC3)nc2cc1OCCCN1CCCC1 | 0.37 | 6 | 6.02 | 16 | 8 | 0 | 7.92 |  |  | 
COc1cc2c(NC3CCN(C)CC3)cc(-c3ccccc3C)nc2cc1OCCCN1CCCC1 |  |  | 6.24 |  |  |  | 7.28 |  |  | 
Nc1ncn([C@@H]2O[C@H](CO)[C@@H](O)[C@H]2O)c(=O)n1 [AZACITIDINE] |  |  | 6.52 |  |  |  |  |  |  | 
COc1cc2c(NC3CCN(C)CC3)cc(-c3ccc(CN(C)C)o3)nc2cc1OCCCN1CCCC1 |  |  | 5.90 |  |  |  | 6.83 |  |  | 
COc1cc2c(NC3CCN(C)CC3)cc(C(F)(F)F)nc2cc1OCCCN1CCCC1 |  |  | < 5.00 |  | 24 |  | 6.20 |  |  | 
COc1cc2c(NC3CCN(C)CC3)nc(-c3ccc(C)o3)nc2cc1OCCCN1CCCC1 |  |  | 5.65 |  |  |  | 6.47 |  |  | 
COc1cc2c(NC3CCN(C)CC3)cc(-c3ccc(-c4ccccc4)o3)nc2cc1OCCCN1CCCC1 |  |  | 5.98 |  |  |  | 5.57 |  |  | 
Nc1ncn([C@H]2C[C@H](O)[C@@H](CO)O2)c(=O)n1 [DECITABINE] |  |  | 7.52 |  |  |  |  |  |  | 
CCNCc1ccc(-c2cc(NC3CCN(C)CC3)c3cc(OC)c(OCCCN4CCCC4)cc3n2)o1 | 0.13 | 0 | 6.21 | 0 | 0 | 3 | 7.32 |  |  | 
COc1cc2c(NC3CCN(C)CC3)cc(-c3ccc(C#N)o3)nc2cc1OCCCN1CCCC1 |  |  | 5.80 |  |  |  | 6.58 |  |  | 
COc1cc2c(NC3CCN(C)CC3)cc(C3CCOCC3)nc2cc1OCCCN1CCCC1 | 0.22 | 0 | 5.35 | 3 | 20 | 6 | 7.77 |  |  | 
COc1cc2c(NC3CCN(C)CC3)cc(C3CCC(C)O3)nc2cc1OCCCN1CCCC1 (stereo unspecified) |  |  | 5.86 |  |  |  | 7.57 |  |  | 
COc1cc2c(NC3CCN(C)CC3)cc(-c3ccc(C)s3)nc2cc1OCCCN1CCCC1 | 2.91 | 21 | 6.64 | 42 |  |  | 7.37 | 3.1 | 0.555 | 4.06
COc1cc2c(NC3CCN(C)CC3)cc(-c3ccc(CO)o3)nc2cc1OCCCN1CCCC1 | 0.05 | 26 | 6.12 | 1 | 0 | 19 | 7.82 |  |  | 
COc1cc2c(NC3CCN(C)CC3)cc(-c3ccnn3C)nc2cc1OCCCN1CCCC1 | 0.09 |  | < 5.00 |  |  |  | 5.97 |  |  | 
COc1cc(NC2CCN(C)CC2)c2cc(OC)c(OCCCN3CCCC3)cc2n1 |  |  | 5.64 |  | 1 |  | 6.87 |  |  | 
COc1cc2c(NC3CCN(C)CC3)cc(-c3cc[nH]c(=O)c3)nc2cc1OCCCN1CCCC1 |  |  | 5.90 |  |  |  | 6.85 |  |  | 
COc1cc2c(NC3CCN(C)CC3)cc(C3CCCCC3)nc2cc1OCCCN1CCCC1 | 1.98 |  | 6.30 |  | 20 |  | 8.70 | > 10 |  | 34.8
COc1cc2c(NC3CCN(C)CC3)cc(-c3cc4ccccc4o3)nc2cc1OCCCN1CCCC1 |  |  | 5.97 |  |  |  | 5.50 |  |  | 
CCc1ccc(-c2cc(NC3CCN(C(C)C)CC3)c3cc(OC)c(OCCCN4CCCC4)cc3n2)o1 | 3.83 |  | 6.55 |  |  |  | 8.52 | 0.971 | 0.441 | 1.72
COc1cc2c(NC3CCN(C)CC3)cc(-c3ccn(C)n3)nc2cc1OCCCN1CCCC1 |  | 16 | 6.01 | 0 | 10 | 16 | 7.36 |  |  | 

From ChEMBL document CHEMBL4130634, “Discovery of Reversible DNA Methyltransferase and Lysine Methyltransferase G9a Inhibitors with Antitumoral in Vivo Efficacy” (J Med Chem, 2018)
